Active and inactive are the calls of the source.
Legend:
[1] = Trypanosoma cruzi growth suppression in host cells – NIH3T3 host cells, beta-gal luminescence, confirmation (AID 2044); assay type: functional, cell-based;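 further: intracellular parasites grown in NIH/3T3 mouse fibroblasts as host cells; luminescent beta-galactosidase reporter signal from transgenic T. cruzi replicating inside host cells; inhibitors lower the luminescence signal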
[2] = NIH3T3 cell viability loss – ATP luminescence, mouse fibroblasts, counter-screen, dose response (AID 2010); assay type: functional, cell-based;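 further: cells exposed to compound for about 90 hours before reading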
Cytochrome P450 2C9 = Cytochrome P450 2C9 (Homo sapiens, UniProt P11712)
Chain of Cytochrome P450 2C9 (P11712 whole entry): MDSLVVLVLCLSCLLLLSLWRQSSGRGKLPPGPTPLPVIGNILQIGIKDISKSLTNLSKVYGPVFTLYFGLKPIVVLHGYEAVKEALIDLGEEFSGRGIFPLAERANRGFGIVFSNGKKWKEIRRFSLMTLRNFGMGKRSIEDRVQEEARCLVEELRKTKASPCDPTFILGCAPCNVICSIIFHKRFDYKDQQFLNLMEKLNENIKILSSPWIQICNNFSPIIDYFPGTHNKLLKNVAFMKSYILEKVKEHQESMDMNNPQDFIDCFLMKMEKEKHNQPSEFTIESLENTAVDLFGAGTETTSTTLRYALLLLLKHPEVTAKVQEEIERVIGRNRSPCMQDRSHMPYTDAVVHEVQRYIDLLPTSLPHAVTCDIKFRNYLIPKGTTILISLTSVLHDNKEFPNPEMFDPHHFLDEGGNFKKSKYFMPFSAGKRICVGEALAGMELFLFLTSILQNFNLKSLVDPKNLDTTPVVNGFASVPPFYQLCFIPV

Streptococcus = experiment: GAS UMAA2166 growth inhibition – luminescence, BacTiterGlo, counter-screen for streptokinase expression inhibitor project, dose response (AID 1915); assay type: functional, organism-based;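 further: potency for reduction of bacterial viability or growth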
[3] = test system: Streptococcus sp. 'group A'; experiment: Streptococcus pyogenes SK(-)GAS viability under kanamycin – luminescence, BacTiterGlo, confirmation, counter-screen for streptokinase expression inhibitor project, dose response (AID 1900); assay type: functional, organism-based
Streptokinase A = biological target: T1, Streptokinase A (Streptococcus pyogenes serotype M1, UniProt P10520); experiment: viability-normalized secreted streptokinase activity reduction – plasminogen activation absorbance, OD405, dose response (AID 1914); assay type: functional, Streptococcus pyogenes M1 GAS;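 further: secreted streptokinase activity via plasminogen activation per viability signal from cell pellet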
T1 sequence (P10520 whole entry): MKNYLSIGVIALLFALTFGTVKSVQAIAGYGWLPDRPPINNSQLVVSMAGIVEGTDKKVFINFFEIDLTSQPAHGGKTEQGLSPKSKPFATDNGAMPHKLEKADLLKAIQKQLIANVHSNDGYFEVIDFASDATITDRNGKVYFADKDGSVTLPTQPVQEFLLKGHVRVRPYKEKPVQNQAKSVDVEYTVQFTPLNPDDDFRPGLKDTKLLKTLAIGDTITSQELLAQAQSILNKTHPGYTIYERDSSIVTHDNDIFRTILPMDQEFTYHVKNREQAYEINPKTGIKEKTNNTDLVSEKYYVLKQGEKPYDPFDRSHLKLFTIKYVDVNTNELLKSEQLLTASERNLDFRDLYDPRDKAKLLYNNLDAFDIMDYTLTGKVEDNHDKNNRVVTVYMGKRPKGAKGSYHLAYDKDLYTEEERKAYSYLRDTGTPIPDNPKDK

Cytochrome P450 2C19 = Cytochrome P450 2C19 (Homo sapiens, UniProt P33261); experiment: Cytochrome panel assay with activity outcomes. Panel member name: p450-cyp2c19 Compounds with AC50 equal or less than 10 uM are considered active; assay type: functional; conditions: read-out: AC50
Chain of Cytochrome P450 2C19 (P33261 whole entry): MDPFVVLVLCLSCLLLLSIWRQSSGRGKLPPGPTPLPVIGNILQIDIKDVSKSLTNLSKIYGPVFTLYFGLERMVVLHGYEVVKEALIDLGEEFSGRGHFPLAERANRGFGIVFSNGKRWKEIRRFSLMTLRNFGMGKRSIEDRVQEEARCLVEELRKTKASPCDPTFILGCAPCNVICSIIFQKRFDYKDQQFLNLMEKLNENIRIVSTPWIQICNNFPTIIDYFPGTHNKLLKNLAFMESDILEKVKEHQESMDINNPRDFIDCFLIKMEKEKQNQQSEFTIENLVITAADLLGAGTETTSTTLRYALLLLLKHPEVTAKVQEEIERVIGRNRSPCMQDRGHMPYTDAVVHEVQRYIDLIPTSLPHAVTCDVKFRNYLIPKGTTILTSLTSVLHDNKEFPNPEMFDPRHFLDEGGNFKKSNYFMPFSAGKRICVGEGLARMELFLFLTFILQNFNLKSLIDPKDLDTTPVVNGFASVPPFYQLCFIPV

[4] = biological target: T2, Heat shock factor protein 1 (Mus musculus, UniProt P38532); experiment: decrease of HSF1-responsive luciferase luminescence – cell-based, NIH3T3, dose retest, confirmation (AID 2382); assay type: functional;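 further: NIH3T3 fibroblasts with HSF1-driven luciferase reporter stressed by proteasome inhibitor MG132; luminescence from HSF1-driven luciferase expression after 8 hours of MG132 stress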
T2 sequence (P38532 whole entry): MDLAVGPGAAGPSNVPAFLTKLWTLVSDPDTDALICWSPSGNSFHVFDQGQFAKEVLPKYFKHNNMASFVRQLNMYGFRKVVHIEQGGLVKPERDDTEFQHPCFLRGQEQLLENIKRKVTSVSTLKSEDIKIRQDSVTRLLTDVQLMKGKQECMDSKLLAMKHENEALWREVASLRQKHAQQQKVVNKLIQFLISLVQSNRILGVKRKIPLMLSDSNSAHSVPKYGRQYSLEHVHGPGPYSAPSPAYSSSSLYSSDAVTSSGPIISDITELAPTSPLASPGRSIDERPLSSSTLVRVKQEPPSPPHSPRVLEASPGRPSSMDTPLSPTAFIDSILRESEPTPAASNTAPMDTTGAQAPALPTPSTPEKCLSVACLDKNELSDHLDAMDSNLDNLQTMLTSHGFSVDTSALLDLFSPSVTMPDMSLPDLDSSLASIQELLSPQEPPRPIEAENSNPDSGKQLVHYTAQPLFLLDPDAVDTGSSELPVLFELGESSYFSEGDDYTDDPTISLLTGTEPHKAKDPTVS

Cytochrome P450 3A4 = Cytochrome P450 3A4 (Homo sapiens, UniProt P08684);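 further: CYP3A4 tested as one member of a cytochrome P450 panel screen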
Chain of Cytochrome P450 3A4 (P08684 whole entry): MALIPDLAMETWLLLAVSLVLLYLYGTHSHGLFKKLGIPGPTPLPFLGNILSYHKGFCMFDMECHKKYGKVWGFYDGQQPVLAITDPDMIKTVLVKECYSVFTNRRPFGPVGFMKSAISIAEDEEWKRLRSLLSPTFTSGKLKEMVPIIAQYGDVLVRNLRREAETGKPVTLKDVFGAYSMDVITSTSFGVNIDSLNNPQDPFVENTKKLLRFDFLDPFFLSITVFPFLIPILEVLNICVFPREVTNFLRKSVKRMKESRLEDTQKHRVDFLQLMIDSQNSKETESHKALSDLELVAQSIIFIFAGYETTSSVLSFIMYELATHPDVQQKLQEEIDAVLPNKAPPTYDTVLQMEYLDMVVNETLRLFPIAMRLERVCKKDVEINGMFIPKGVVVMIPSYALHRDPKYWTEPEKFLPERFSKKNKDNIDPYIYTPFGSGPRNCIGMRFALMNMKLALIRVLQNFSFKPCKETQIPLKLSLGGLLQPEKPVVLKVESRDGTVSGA

**Q.** For `CCOc1ccc(-n2c(SCc3nc(-c4cccs4)no3)nnc2-c2ccncc2)cc1`, which EC50 [1] is on record?
**A.** The EC50 was 1.25 µM (active).

**Q.** And the EC50 [2]?
**A.** Its EC50 is > 60 µM (not active).

**Q.** Which AC50 (Cytochrome P450 2C9) does the source give for `CCOc1nn(-c2ccc(Cl)cc2)c(O)c1/C=N/c1ccc(Cl)cc1` here?
**A.** The AC50 was 12.6 µM (inconclusive).

**Q.** With `CC1=NN(C(N)=S)C(=O)C1N=Nc1c(C)cc(C)cc1C` (stereo not drawn) as the compound, how does the EC50 (Streptococcus) read?
**A.** Its EC50 is > 150 µM (not active).

**Q.** And the EC50 [3]?
**A.** Its EC50 is 5.14 µM (active).

**Q.** What about the EC50 (Streptokinase A) of the same compound?
**A.** Its EC50 is > 150 µM (not active).

**Q.** Which results are given for `CCN(CC)CCCSc1nc2ccccc2s1`?
**A.** EC50 [1]: 0.445 µM (active); EC50 [2]: > 30 µM (not active)

**Q.** With `CCOc1ccc(-n2c(C)cc(/C=C3/C(=N)N4C(=NC3=O)SN=C4S(C)(=O)=O)c2C)cc1` as the compound, how does the EC50 (Streptococcus) read?
**A.** Its EC50 is 17.5 µM (active).

**Q.** And the EC50 [3]?
**A.** The EC50 was 0.599 µM (active).

**Q.** What about the EC50 (Streptokinase A) of the same compound?
**A.** The EC50 was > 150 µM (not active).

**Q.** For `Clc1ccc(/C=N/N=C(/Nc2ccccc2)c2ccccn2)c(Cl)c1`, which EC50 (Streptococcus) is on record?
**A.** The EC50 was 30.2 µM (active).

**Q.** What about the EC50 [3] of the same compound?
**A.** Its EC50 is 10.9 µM (active).

**Q.** What about the EC50 (Streptokinase A) of the same compound?
**A.** Its EC50 is > 150 µM (not active).

**Q.** With `COc1ccc(C(=O)C2CCCN(Cc3cnc(N4CCOCC4)s3)C2)c(OC)c1` (stereo not drawn) as the compound, how does the EC50 [1] read?
**A.** The EC50 was 0.991 µM (active).

**Q.** What about the EC50 [2] of the same compound?
**A.** Its EC50 is > 60 µM (not active).

**Q.** With `COc1ccc2nc(/N=C\N(C)C)sc2c1` as the compound, how does the AC50 (Cytochrome P450 2C9) read?
**A.** Its AC50 is 0.00562 µM (inconclusive).

**Q.** What about the AC50 (Cytochrome P450 2C19) of the same compound?
**A.** The AC50 was 22.4 µM (inconclusive).

**Q.** Which EC50 [4] does the source give for `O=S(=O)(CCc1nc2ccccc2[nH]1)c1ccc(Cl)cc1` here?
**A.** Its EC50 is > 195 µM (not active).

**Q.** With `CNC(=O)C(=O)NCC1OCCN1S(=O)(=O)c1ccc(OC)c(OC)c1` (stereo not drawn) as the compound, how does the EC50 (Streptococcus) read?
**A.** Its EC50 is > 150 µM (not active).

**Q.** What about the EC50 [3] of the same compound?
**A.** Its EC50 is > 150 µM (not active).

**Q.** What about the EC50 (Streptokinase A) of the same compound?
**A.** The EC50 was > 150 µM (not active).

**Q.** Which AC50 (Cytochrome P450 3A4) does the source give for `CC1(C)OC(=O)C(/C=N/c2cccc(O)c2)=C(O)O1` here?
**A.** The AC50 was 31.6 µM (inconclusive).

**Q.** For `CN(C)C(=O)CSc1nnc(O)nc1O`, which EC50 [4] is on record?
**A.** The EC50 was > 195 µM (not active).

**Q.** For `Cc1ccc(CN2C(=O)CCC2C(=O)NCc2cccnc2)cc1` (stereo not drawn), which AC50 (Cytochrome P450 2C9) is on record?
**A.** Its AC50 is 28.2 µM (inconclusive).

**Q.** Which EC50 [1] does the source give for `CCOc1ccc(CCNC(=O)c2cc(-c3ccccc3)c(N3CCOCC3)s2)cc1` here?
**A.** The EC50 was 1.45 µM (active).

**Q.** What about the EC50 [2] of the same compound?
**A.** Its EC50 is > 60 µM (not active).

**Q.** With `C[C@]12CC[C@@H]3C(=CCc4cc(O)ccc43)[C@@H]1CCC2=O` as the compound, how does the AC50 (Cytochrome P450 2C19) read?
**A.** Its AC50 is 7.94 µM (inconclusive).

**Q.** Which AC50 (Cytochrome P450 2C9) does the source give for `O=C(O)CCC(=O)N1CCc2cc(S(=O)(=O)NCc3cccs3)ccc21` here?
**A.** Its AC50 is 31.6 µM (inconclusive).

**Q.** What about the AC50 (Cytochrome P450 2C19) of the same compound?
**A.** Its AC50 is 25.1 µM (inconclusive).

**Q.** With `CC(Sc1nnc(Cc2cccs2)n1C1CCCCC1)C(N)=O` (stereo not drawn) as the compound, how does the AC50 (Cytochrome P450 3A4) read?
**A.** Its AC50 is 3.98 µM (inconclusive).

**Q.** For `O=C(c1cnccn1)N1CCC2(CC1)CN(Cc1ccncc1)C2`, which AC50 (Cytochrome P450 2C9) is on record?
**A.** Its AC50 is 31.6 µM (inconclusive).

**Q.** With `Cc1cccc(C(=O)NC2CCN(C(=O)N3CCOCC3)CC2)c1` as the compound, how does the AC50 (Cytochrome P450 2C19) read?
**A.** The AC50 was 31.6 µM (inconclusive).

**Q.** For `Cc1ccc(NC(=O)C2CCN(S(C)(=O)=O)CC2)cc1`, which AC50 (Cytochrome P450 2C19) is on record?
**A.** Its AC50 is 20 µM (inconclusive).

**Q.** Which AC50 (Cytochrome P450 2C19) does the source give for `CN1CCN(C(=O)c2ccc3c(=O)n4c(nc3c2)CCCCC4)CC1` here?
**A.** Its AC50 is 10 µM (inconclusive).

**Q.** With `c1ccc(C(NCCNC(c2ccccc2)c2ccccc2)c2ccccc2)cc1` as the compound, how does the EC50 (Streptococcus) read?
**A.** Its EC50 is 20.8 µM (active).

**Q.** What about the EC50 [3] of the same compound?
**A.** The EC50 was 1.51 µM (active).

**Q.** What about the EC50 (Streptokinase A) of the same compound?
**A.** The EC50 was 12 µM (active).

**Q.** With `COC(=O)[C@H](Cc1ccccc1)NC(=O)[C@@H](C)CO` as the compound, how does the AC50 (Cytochrome P450 2C9) read?
**A.** Its AC50 is 3.98 µM (inconclusive).

**Q.** Which AC50 (Cytochrome P450 3A4) does the source give for `COc1ccc(NC(=O)CN(C)S(=O)(=O)c2ccc(Cl)cc2)c([N+](=O)[O-])c1` here?
**A.** Its AC50 is 1.78 µM (inconclusive).

**Q.** Which AC50 (Cytochrome P450 2C9) does the source give for `COc1ccc(O[C@H]2C=C[C@@H](c3ccccc3)O[C@H]2COC(=O)CC/C(C)=N\O[C@@H](C)c2cc(-c3c(C)cc(C)cc3C)no2)cc1` here?
**A.** The AC50 was 1.58 µM (inconclusive).

**Q.** Which results are given for `CCOc1cccc(N(C(=O)c2ccco2)C(C(=O)NC2CCCC2)c2cccnc2)c1` (stereo not drawn)?
**A.** EC50 (Streptococcus): > 150 µM (not active); EC50 [3]: > 150 µM (not active); EC50 (Streptokinase A): > 150 µM (not active)

**Q.** With `CN1C(C(=O)Nc2ccc(OC(F)(F)F)cc2)=CC(c2cccs2)=NS1(=O)=O` as the compound, how does the EC50 [4] read?
**A.** Its EC50 is 62.2 µM (active).

**Q.** For `C=CCO/C(O)=C1\C(C)=NC(SCC)=C(C#N)C1c1ccc(Cl)cc1` (stereo not drawn), which EC50 (Streptococcus) is on record?
**A.** Its EC50 is 17.6 µM (active).

**Q.** What about the EC50 [3] of the same compound?
**A.** The EC50 was 4.9 µM (active).

**Q.** What about the EC50 (Streptokinase A) of the same compound?
**A.** The EC50 was 8.34 µM (active).

— ChEMBL document CHEMBL1201862, “PubChem BioAssay data set” (2004)
